This is an account of results in publication PMC10683025, “Discovery of a Hydroxylamine-Based Brain-Penetrant EGFR Inhibitor for Metastatic Non-Small-Cell Lung Cancer” (Journal of Medicinal Chemistry, 2023).

SMILES strings stand for the structures. Read-outs that look alike come from different tables or passages of the source.

Data set [1] is described as follows: Brain tissue binding by equilibrium dialysis. Type of data set: in vitro ADME. As to conditions: rat. On the procedure:
(§1) Plasma protein binding and brain tissue binding were determined by Pharmaron, Inc. using the equilibrium dialysis method. […] Following incubation, the samples were analyzed by LC-MS/MS and the concentrations of the compounds were determined in the buffer and plasma solution chambers.
Background: In equilibrium dialysis free small molecules cross a membrane that holds back macromolecules.

Data set [2] can be described thus: Brain tissue binding by equilibrium dialysis. It counts as in vitro ADME, mouse. As to conditions: CD-1, mouse. On the procedure:
as §1

Another data set is described as follows: Caco-2 permeability. It counts as in vitro ADME. The note with it: human; for efflux ratio at 2 h, 5 μM / Papp A→B at 2 h, 5 μM / Papp B→A at 2 h, 5 μM: Caco-2; for recovery at 2 h, 5 μM: Caco-2, Caco-2.
Another data set in a line: MDCKII-MDR1 permeability. Type of data set: in vitro ADME, canine. As to conditions: dog, MDCK-MDR1, MDCKII-MDR1.
In another data set the test system is MDR1. Briefly: MDCKII-MDR1 permeability. Type of data set: in vitro ADME, canine. As to conditions: dog, MDCK-MDR1.
Data set [3] is described as follows: Plasma stability. Type of data set: in vitro ADME, human. As to conditions: human plasma. On the procedure: (§2) Assessment of compounds to determine stability in incubations containing plasma of human (Pharmaron) and Sprague-Dawley rat (IPHASE) was performed by Pharmaron, Inc. using the compound […] approach. Compounds were assessed in duplicate (n = 2) and incubated in plasma at 5 μM and samples (50 μL) were taken at 0, 15, 30, 60, and 120 min time points for analysis by LC-MS/MS. Peak area ratios were determined from the extracted ion chromatogram and the percent compound remaining at each time point was calculated by the following equation: [drawing 2] where peak area ratiot min is the peak area ratio of control and test compound at t min and peak area ratio0 min is the peak area ratio of control and test compound at zero time point.

A further data set deals with P-gp and BCRP. More on the design: method as in ref 17−20. As to conditions: ref 17−20; cited from earlier work.
Data set [4] is described as follows: Plasma stability. It counts as in vitro ADME, Sprague-Dawley rat. As to conditions: rat plasma. On the procedure: as §2
The subject of the next data set is TA100. Set-up: species or system Salmonella. On the procedure: (§3) Compounds were assessed for mutagenicity at the Eurofins Panlabs in 384-well plates using four Salmonella strains: TA98, to probe for frameshift mutation (with quercetin as control), TA100 and TA1535, to probe for base pair insertions/deletions (with streptozotocin as control), and TA1537, to probe for frameshift mutations (with aminacridine as control) as previously described.[78] […] A concurrent bacterial cytotoxicity assay was run at 0.6, 1.2, 2.5, 5, 10, 25, 50, and 100 μM to rule out false negatives. Bacterial cytotoxicity was expressed as percent of control growth (OD650). Compounds with growth of less than 60% control were flagged and considered bacterial cytotoxic. […] Significances of the positive counts between the treatment and control were determined using a one-tailed Fisher’s exact test.

Another data set relates to TA1537. Set-up: species or system Salmonella. As for the experimental part: as §3
The test system of a further data set is TA98. More on the design: species or system Salmonella. On the procedure: as §3;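 on Count (# of wells): Revertant-positive wells among 48 replicate wells per concentration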
A further data set concerns TA1535. Set-up: species or system Salmonella.

For the molecule `CCCc1nc2c(C)cc(-c3nc4ccccc4n3C)cc2n1Cc1ccc(-c2ccccc2C(=O)O)cc1` [Telmisartan, reference compound], the recovery at 6 h, 5 μM stood at 107% in [1] (Sprague-Dawley (SD), rat brain homogenate) and 109% in [2] (mouse brain homogenate). For the same molecule, the fraction unbound at 6 h, 5 μM in data set [1] (Sprague-Dawley, brain homogenate, read-out: fu,brain% / %Unboundbrain) is 0.0146; in data set [1] (Sprague-Dawley, rat brain homogenate, read-out: %Boundbrain (converted)), 0.0146; in [2] (brain homogenate, read-out: fu,brain% / %Unboundbrain), 0.0143; in data set [2] (mouse brain homogenate, read-out: %Unboundbrain (converted)), 0.0143. The fraction remaining at 6 h, 5 μM in [1] (Sprague-Dawley, rat brain homogenate) stood at 100%; in data set [2] (mouse brain homogenate), 108%.
`C[C@H]1O[C@@H](O[C@H]2[C@@H](O)C[C@H](O[C@H]3[C@@H](O)C[C@H](O[C@H]4CC[C@@]5(C)[C@H](CC[C@@H]6[C@@H]5C[C@@H](O)[C@]5(C)[C@@H](C7=CC(=O)OC7)CC[C@]65O)C4)O[C@@H]3C)O[C@@H]2C)C[C@H](O)[C@@H]1O` [Digoxin, reference compound]: in “Caco-2 permeability”, the efflux ratio (commonly a quotient of directional permeabilities that is used to spot active efflux) at 2 h, 5 μM came out at 50.1; the apparent permeability from apical to basolateral (Papp A→B) (commonly how fast a substance crosses the layer from the apical side) at 2 h, 5 μM worked out at 0.27 ×10⁻⁶ cm/s; the Papp B→A – broadly, how fast a substance crosses the layer from the basolateral side – at 2 h, 5 μM came to 13.4 ×10⁻⁶ cm/s. Further, in “Caco-2 permeability” (read-out: Recovery% (AP-BL)), the recovery at 2 h, 5 μM amounted to 108%. Also, the recovery at 2 h, 5 μM in “Caco-2 permeability” (read-out: Recovery% (BL-AP)) is 96.2%. For the same molecule, the recovery at 2 h, 1 μM in the data set “MDCKII-MDR1 permeability” (read-out: Recovery% (AP-BL)) amounted to 98.8%. For the same molecule, in the data set “MDCKII-MDR1 permeability” (read-out: Recovery% (BL-AP)), the recovery at 2 h, 1 μM was found to be 100%. In addition, in the data set with MDR1, the efflux ratio at 2 h, 1 μM worked out at 40.6; the apparent permeability from apical to basolateral (Papp A→B) at 2 h, 1 μM turned out to be 0.25 ×10⁻⁶ cm/s; the Papp B→A at 2 h, 1 μM turned out to be 10.2 ×10⁻⁶ cm/s.
As to `CC(C)[N+](C)(CCOC(=O)C1c2ccccc2Oc2ccccc21)C(C)C` [Propantheline, reference compound], the “Remaining Percentages” value in “Plasma stability [3]” (15 min) is reported as 69.10%; in “Plasma stability [3]” (30 min) it was 48.79%; in “Plasma stability [3]” (60 min), 22.07%; in the data set “Plasma stability [3]” (120 min) it was 4.85%. Moreover, in “Plasma stability [3]” (∞ = no degradation), the half-life (commonly the time needed for the level to fall by half in the phase considered) at 5 μM was 27.6 min.
As to `COCCc1ccc(OCC(O)CNC(C)C)cc1` (centres unmarked) [Metoprolol, reference compound], in the data set “Caco-2 permeability”, the efflux ratio at 2 h, 5 μM was found to be 0.89; the Papp A→B at 2 h, 5 μM came out at 24.9 ×10⁻⁶ cm/s; the basolateral-to-apical permeability (Papp B→A) at 2 h, 5 μM amounted to 22.2 ×10⁻⁶ cm/s. Besides, in the data set “Caco-2 permeability” (read-out: Recovery% (AP-BL)), the recovery at 2 h, 5 μM was 97.4%. Moreover, the recovery at 2 h, 5 μM in the data set “Caco-2 permeability” (read-out: Recovery% (BL-AP)) was determined as 98.4%. The recovery at 2 h, 1 μM in the data set “MDCKII-MDR1 permeability” (read-out: Recovery% (AP-BL)) was 105%. In addition, the recovery at 2 h, 1 μM in the data set “MDCKII-MDR1 permeability” (read-out: Recovery% (BL-AP)) was 98.4%. In the data set on MDR1, the efflux ratio at 2 h, 1 μM turned out to be 0.81; the apparent permeability from apical to basolateral (Papp A→B) at 2 h, 1 μM stood at 25.9 ×10⁻⁶ cm/s; the Papp B→A at 2 h, 1 μM was 20.9 ×10⁻⁶ cm/s.
In the case of `C#Cc1cccc(Nc2ncnc3cc(OCCOC)c(OCCOC)cc23)c1` [Erlotinib], in the data set on P-gp and BCRP, the “efflux status against common efflux transporters” value (“efflux status” for short) was “P-gp and BCRP Substrate”.
`CC[C@H](C)C(=O)O[C@H]1C[C@@H](C)C=C2C=C[C@H](C)[C@H](CC[C@@H]3C[C@@H](O)CC(=O)O3)[C@H]21` [Mevinolin, reference compound] had a half-life at 5 μM in “Plasma stability [4]” (Sprague-Dawley, ∞ = no degradation) of 2.49 min. The “Remaining Percentages” value in “Plasma stability [4]” (15 min) turned out to be 1.54%; in the data set “Plasma stability [4]” (30 min), 0.42%; in “Plasma stability [4]” (60 min), 0.30%; in “Plasma stability [4]” (120 min), 0.27%.
In the case of `Nc1c2ccccc2nc2ccccc12` [9-Aminoacridine, reference compound], the “Count (# of wells)” value in the data set on TA100 (TA100+S9, 1.0E-05 M) was 3; in the data set on TA100 (TA100-S9, 1.0E-05 M) it was 2; with TA1537 (TA1537+S9, 1.0E-05 M) it was 17; in the data set with TA1537 (TA1537-S9, 1.0E-05 M), 11; in the data set on TA98 (TA98+S9, 1.0E-05 M) it was 1; in the data set on TA98 (TA98-S9, 1.0E-05 M), 0. The “Count (# of wells)” value in the data set with TA1535 (TA1535+S9, 1.0E-05 M) is 0; in the data set on TA1535 (TA1535-S9, 1.0E-05 M), 1. Further, the “Positive Significance (- to +++)” value in the data set with TA100 (TA100+S9, 1.0E-05 M) is on record as “-”; in the data set on TA100 (TA100-S9, 1.0E-05 M), “-”; in the data set with TA1537 (TA1537-S9, 1.0E-05 M), “++ (strong positive, if P < 0.01 (denoted as “++”))”; with TA98 (TA98+S9, 1.0E-05 M), “-”; in the data set with TA98 (TA98-S9, 1.0E-05 M), “-”; with TA1535 (TA1535+S9, 1.0E-05 M) it was “-”. Besides, in the data set with TA1535 (TA1535-S9, 1.0E-05 M), the “Positive Significance (- to +++)” value is given as “-”.
Turning to `CN(C)C/C=C/C(=O)Nc1cc2c(Nc3ccc(F)c(Cl)c3)ncnc2cc1O[C@H]1CCOC1` [Afatinib], the “efflux status” value in the data set on P-gp and BCRP is “P-gp and BCRP Substrate”.
As for `COc1cc2ncnc(Nc3ccc(F)c(Cl)c3)c2cc1NC(=O)/C=C/CN1CCCCC1` [Dacomitinib], the “efflux status” value in the data set on P-gp and BCRP was “P-gp and BCRP Substrate”.
On to `CN(N=O)C(=O)N[C@H]1C(O)O[C@H](CO)[C@@H](O)[C@@H]1O` (mixture of isomers) [Streptozotocin, reference compound], for which the “Count (# of wells)” value was 39 with TA100 (TA100+S9, 2.5E-06 M); 42 with TA100 (TA100-S9, 2.5E-06 M); 7 in the data set on TA1537 (TA1537+S9, 2.5E-06 M); 2 in the data set with TA1537 (TA1537-S9, 2.5E-06 M); 2 in the data set with TA98 (TA98+S9, 2.5E-06 M); 1 in the data set with TA98 (TA98-S9, 2.5E-06 M). The “Count (# of wells)” value with TA1535 (TA1535+S9, 2.5E-06 M) was 48; with TA1535 (TA1535-S9, 2.5E-06 M), 2. Besides, the “Positive Significance (- to +++)” value in the data set with TA1537 (TA1537+S9, 2.5E-06 M) was “-”; with TA1537 (TA1537-S9, 2.5E-06 M) it was “-”; in the data set on TA98 (TA98+S9, 2.5E-06 M), “-”; in the data set on TA98 (TA98-S9, 2.5E-06 M) it was “-”; with TA1535 (TA1535-S9, 2.5E-06 M), “-”.
Take `O=c1c(O)c(-c2ccc(O)c(O)c2)oc2cc(O)cc(O)c12` [Quercetin, reference compound]: the “Count (# of wells)” value turned out to be 5 in the data set with TA100 (TA100+S9, 1.0E-05 M); 1 with TA100 (TA100-S9, 1.0E-05 M); 6 in the data set on TA1537 (TA1537+S9, 3.0E-05 M); 1 with TA1537 (TA1537-S9, 1.0E-05 M); 30 with TA98 (TA98+S9, 1.0E-05 M); 12 in the data set with TA98 (TA98-S9, 1.0E-05 M). Also, the “Count (# of wells)” value in the data set on TA1535 (TA1535+S9, 1.0E-05 M) is 4. The “Positive Significance (- to +++)” value is “-” in the data set with TA100 (TA100+S9, 1.0E-05 M); “-” in the data set with TA1537 (TA1537+S9, 3.0E-05 M); “-” in the data set with TA1537 (TA1537-S9, 1.0E-05 M); “-” in the data set with TA1535 (TA1535+S9, 1.0E-05 M).
Regarding `Nc1ccc2cc3ccccc3cc2c1` [2-Aminoanthracene, reference compound], the “Count (# of wells)” value with TA100 (TA100+S9, 1.0E-06 M) worked out at 21; in the data set on TA100 (TA100-S9, 5.0E-06 M), 4; with TA1537 (TA1537+S9, 1.0E-05 M), 14; in the data set with TA1537 (TA1537-S9, 5.0E-06 M), 1; in the data set with TA98 (TA98+S9, 2.0E-06 M), 47; in the data set on TA98 (TA98-S9, 5.0E-06 M), 1. For the same molecule, in the data set with TA1535 (TA1535+S9, 5.0E-06 M), the “Count (# of wells)” value worked out at 15. Also, the “Positive Significance (- to +++)” value is reported as “-” in the data set on TA100 (TA100-S9, 5.0E-06 M); “++ (strong positive, if P < 0.01 (denoted as “++”))” in the data set with TA1537 (TA1537+S9, 1.0E-05 M); “-” with TA1537 (TA1537-S9, 5.0E-06 M); “-” in the data set on TA98 (TA98-S9, 5.0E-06 M).
On to `C=CC(=O)Nc1cc(Nc2nccc(-c3cn(C)c4ccccc34)n2)c(OC)cc1N(C)CCN(C)C` [Osimertinib], for which, in the data set on P-gp and BCRP, the “efflux status” value is “Moderate P-gp and BCRP Substrate”.
